Assay results: patent US8658661B2, “Oxadiazole inhibitors of leukotriene production” (Boehringer Ingelheim International GmbH, priority 2010, dated 2014)

What was measured:
[1] = molecular target: T1, recombinant human FLAP protein (Homo sapiens, UniProt P20292); test: FLAP binding assay (SPA, displacement of [125I]L-691,831); details: membranes of sf9 cells expressing recombinant human FLAP; [125I]L-691,831 probe; read-out: FLAP binding IC50
T1 construct: made in house; host or cells: Sf9 insect cells (100,000×g membrane pellet used)
T1 sequence (P20292 1-161): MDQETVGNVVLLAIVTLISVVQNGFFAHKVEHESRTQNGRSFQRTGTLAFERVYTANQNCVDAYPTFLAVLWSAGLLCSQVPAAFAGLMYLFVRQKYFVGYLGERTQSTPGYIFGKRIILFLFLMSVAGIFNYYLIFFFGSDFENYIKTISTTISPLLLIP
Outline: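 Membranes from sf9 cells expressing human FLAP in pH 7.5 Tris buffer (MgCl2, EDTA, PMSF). Non-specific binding defined with 10 μM cold L-691,831.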

[2] = tested on: synthesis of LTB4 in human whole blood; test: Human whole blood assay (inhibition of LTB4 synthesis, calcimycin stimulated); type: cell-based; details: heparinized human whole blood, calcimycin 20 μM, plasma LTB4
Outline: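 Steps: compound plus heparinized human whole blood, 15 min at 37° C; add calcimycin to 20 μM final; incubate another 30 min at 37° C; centrifuge at low speed and collect plasma; measure LTB4 with a homogeneous time-resolved fluorescence immunoassay.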

IC50 [1] | IC50 [2] | Structure (SMILES)
0.015 µM | 0.13 µM | CC(C)C(C)(c1ccc(-c2cnc(N)nc2)cc1)c1noc(N2CC(C)(O)C2)n1 (stereo not drawn) [Example 203, 1-(3-{1-[4-(2-Amino-pyrimidin-5-yl)-phenyl]-1,2-dimethyl-propyl}-[1,2,4]oxadiazol-5-yl)-3-methyl-azetidin-3-ol]
0.013 µM | 0.15 µM | CC(c1ccc(-c2cnc(N)nc2)cc1)(c1noc(N2CCCC2)n1)C1CC1 (stereo not drawn) [Example 204, 5-{4-[1-Cyclopropyl-1-(5-pyrrolidin-1-yl-[1,2,4]oxadiazol-3-yl)-ethyl]-phenyl}-pyrimidin-2-ylamine]
0.023 µM | 0.31 µM | CC(c1ccc(-c2cnc(N)nc2)cc1)(c1noc(-c2cncn2C2COC2)n1)C1CC1 (stereo not drawn) [Example 206, 5-(4-{1-Cyclopropyl-1-[5-(3-oxetan-3-yl-3H-imidazol-4-yl)-[1,2,4]oxadiazol-3-yl]-ethyl}-phenyl)-pyrimidin-2-ylamine]
0.092 µM | 0.7 µM | CC(c1ccc(-c2cnc(N)nc2)cc1)(c1noc(-c2cn(C3COC3)cn2)n1)C1CC1 (stereo not drawn) [Example 207, 5-(4-{1-Cyclopropyl-1-[5-(1-oxetan-3-yl-1H-imidazol-4-yl)-[1,2,4]oxadiazol-3-yl]-ethyl}-phenyl)-pyrimidin-2-ylamine]
0.013 µM | 0.25 µM | CC(C)C(C)(c1ccc(-c2cnc(N)nc2)cc1)c1noc(N2CCC(S(C)(=O)=O)CC2)n1 (stereo not drawn) [Example 208, 5-(4-{1-[5-(4-Methanesulfonyl-piperidin-1-yl)-[1,2,4]oxadiazol-3-yl]-1,2-dimethyl-propyl}-phenyl)-pyrimidin-2-ylamine]
0.0082 µM | 0.1 µM | CC(C)C(C)(c1ccc(-c2cnc(N)nc2)cc1)c1noc(N2CCC(CO)CC2)n1 (stereo not drawn) [Example 209, [1-(3-{1-[4-(2-Amino-pyrimidin-5-yl)-phenyl]-1,2-dimethyl-propyl}-[1,2,4]oxadiazol-5-yl)-piperidin-4-yl]-methanol]
0.0044 µM | 0.19 µM | C[C@@](c1ccc(-c2ccc(N)nc2)cc1)(c1noc(-c2cnc(N3CCNCC3)cn2)n1)C1CC1 [Example 210, 5-(4-{(R)-1-Cyclopropyl-1-[5-(3,4,5,6-tetrahydro-2H-[1,2′]bipyrazinyl-5′-yl)-[1,2,4]oxadiazol-3-yl]-ethyl}-phenyl)-pyridin-2-ylamine]
0.012 µM | 0.23 µM | CC(C)C(C)(c1ccc(-c2cnc(N)nc2)cc1)c1noc(N2CCN(CC(C)(C)O)CC2)n1 (stereo not drawn) [Example 211, 1-[4-(3-{1-[4-(2-Amino-pyrimidin-5-yl)-phenyl]-1,2-dimethyl-propyl}-[1,2,4]oxadiazol-5-yl)-piperazin-1-yl]-2-methyl-propan-2-ol]
0.012 µM | 0.086 µM | CC(C)C(C)(c1ccc(-c2cnc(N)nc2)cc1)c1noc(N2CCC(CCO)CC2)n1 (stereo not drawn) [Example 212, 2-[1-(3-{1-[4-(2-Amino-pyrimidin-5-yl)-phenyl]-1,2-dimethyl-propyl}-[1,2,4]oxadiazol-5-yl)-piperidin-4-yl]-ethanol]
0.014 µM | 0.33 µM | CC(C)C(C)(c1ccc(-c2cnc(N)nc2)cc1)c1noc(N2CCC(C(N)=O)CC2)n1 (stereo not drawn) [Example 213, 1-(3-{1-[4-(2-Amino-pyrimidin-5-yl)-phenyl]-1,2-dimethyl-propyl}-[1,2,4]oxadiazol-5-yl)-piperidine-4-carboxylic acid amide]

More lines, now with the values behind:

Structure (SMILES) | IC50 [1] | IC50 [2]
CC(C)C(C)(c1ccc(-c2cnc(N)nc2)cc1)c1noc(N2CCN(CCO)CC2)n1 (stereo not drawn) [Example 186, 2-[4-(3-{1-[4-(2-Amino-pyrimidin-5-yl)-phenyl]-1,2-dimethyl-propyl}-[1,2,4]oxadiazol-5-yl)-piperazin-1-yl]-ethanol] | 0.02 µM | 0.15 µM
Cc1nc(-c2ccc([C@](C)(c3noc(-c4cnn(C)c4)n3)C3CC3)cc2)cnc1N [Example 187, 5-(4-{(R)-1-Cyclopropyl-1-[5-(1-methyl-1H-pyrazol-4-yl)-[1,2,4]oxadiazol-3-yl]-ethyl}-phenyl)-3-methyl-pyrazin-2-ylamine] | 0.017 µM | 0.023 µM
COCCn1cc(-c2nc([C@@](C)(c3ccc(-c4cnc(N)c(C)c4)cc3)C3CC3)no2)cn1 [Example 188, 5-[4-((R)-1-Cyclopropyl-1-{5-[1-(2-methoxy-ethyl)-1H-pyrazol-4-yl]-[1,2,4]oxadiazol-3-yl}-ethyl)-phenyl]-3-methyl-pyridin-2-ylamine] | 0.048 µM | 0.051 µM
COCCn1cc(-c2nc([C@@](C)(c3ccc(-c4cnc(N)c(C)n4)cc3)C3CC3)no2)cn1 [Example 189, 5-[4-((R)-1-Cyclopropyl-1-{5-[1-(2-methoxy-ethyl)-1H-pyrazol-4-yl]-[1,2,4]oxadiazol-3-yl}-ethyl)-phenyl]-3-methyl-pyrazin-2-ylamine] | 0.013 µM | 0.049 µM
C[C@@](c1ccc(-c2cnc(N)nc2)cc1)(c1noc(-c2cnn(CCN)c2)n1)C1CC1 [Example 190, 5-[4-((R)-1-{5-[1-(2-Amino-ethyl)-1H-pyrazol-4-yl]-[1,2,4]oxadiazol-3-yl}-1-cyclopropyl-ethyl)-phenyl]-pyrimidin-2-ylamine] | 0.0059 µM | 0.23 µM
COCCn1cc(-c2nc([C@@](C)(c3ccc(-c4cnc(N)cn4)cc3)C3CC3)no2)cn1 [Example 191, 5-[4-((R)-1-Cyclopropyl-1-{5-[1-(2-methoxy-ethyl)-1H-pyrazol-4-yl]-[1,2,4]oxadiazol-3-yl}-ethyl)-phenyl]-pyrazin-2-ylamine] | 0.0059 µM | 0.017 µM
CC(C)C(C)(c1ccc(-c2cnc(N)nc2)cc1)c1noc(N2CCN(C(N)=O)CC2)n1 (stereo not drawn) [Example 192, 4-(3-{1-[4-(2-Amino-pyrimidin-5-yl)-phenyl]-1,2-dimethyl-propyl} [1,2,4]oxadiazol-5-yl)-piperazine-1-carboxylic acid amide] | 0.023 µM | 0.74 µM
CC(C)C(C)(c1ccc(-c2cnc(N)nc2)cc1)c1noc(N2CCN(CC(=O)N(C)C)CC2)n1 (stereo not drawn) [Example 193, 2-[4-(3-{1-[4-(2-Amino-pyrimidin-5-yl)-phenyl]-1,2-dimethyl-propyl}-[1,2,4]oxadiazol-5-yl)-piperazin-1-yl]-N,N-dimethyl-acetamide] | 0.018 µM | 0.23 µM
COCCN(C)C(=O)Cn1cc(-c2nc([C@@](C)(c3ccc(-c4cnc(N)nc4)cc3)C3CC3)no2)cn1 [Example 194, 2-[4-(3-{(R)-1-[4-(2-Amino-pyrimidin-5-yl)-phenyl]-1-cyclopropyl-ethyl}-[1,2,4]oxadiazol-5-yl)-pyrazol-1-yl]-N-(2-methoxy-ethyl)-N-methyl-acetamide] | 0.006 µM | 0.096 µM
C[C@@](c1ccc(-c2cnc(N)cn2)cc1)(c1noc(-c2cnc(N3CCNCC3)cn2)n1)C1CC1 [Example 195, 5-(4-{(R)-1-Cyclopropyl-1-[5-(3,4,5,6-tetrahydro-2H-[1,2′]bipyrazinyl-5′-yl)-[1,2,4]oxadiazol-3-yl]-ethyl}-phenyl)-pyrazin-2-ylamine] | 0.0046 µM | 0.28 µM
C[C@@](c1ccc(-c2cnc(N)nc2)cc1)(c1noc(-c2cnc(N3CCNCC3)cn2)n1)C1CC1 [Example 196, 5-(4-{(R)-1-Cyclopropyl-1-[5-(3,4,5,6-tetrahydro-2H-[1,2′]bipyrazinyl-5′-yl)-[1,2,4]oxadiazol-3-yl]-ethyl}-phenyl)-pyrimidin-2-ylamine] | 0.0022 µM | 0.18 µM
CN(C)C(=O)Cn1cc(-c2nc([C@@](C)(c3ccc(-c4cnc(N)[nH]c4=O)cc3)C3CC3)no2)cn1 [Example 197, 2-[4-(3-{(R)-1-[4-(2-amino-6-oxo-1,6-dihydro-pyrimidin-5-yl)-phenyl]-1-cyclopropyl-ethyl}-[1,2,4]oxadiazol-5-yl)-pyrazol-1-yl]-N,N-dimethyl-acetamide] | 0.016 µM | > 5 µM
CC(C)C(C)(c1ccc(-c2cnc(N)nc2)cc1)c1noc(N2CCC(C(C)(C)O)CC2)n1 (stereo not drawn) [Example 198, 2-[1-(3-{1-[4-(2-Amino-pyrimidin-5-yl)-phenyl]-1,2-dimethyl-propyl}-[1,2,4]oxadiazol-5-yl)-piperidin-4-yl]-prop an-2-ol] | 0.0075 µM | 0.28 µM
CC(C)C(C)(c1ccc(-c2cnc(N)nc2)cc1)c1noc(N2CCNC(=O)C2)n1 (stereo not drawn) [Example 199, 4-(3-{1-[4-(2-Amino-pyrimidin-5-yl)-phenyl]-1,2-dimethyl-propyl}-[1,2,4]oxadiazol-5-yl)-piperazin-2-one] | 0.032 µM | 0.69 µM
CC(C)C(C)(c1ccc(-c2cnc(N)nc2)cc1)c1noc(N2CC(O)C2)n1 (stereo not drawn) [Example 200, 1-(3-{1-[4-(2-Amino-pyrimidin-5-yl)-phenyl]-1,2-dimethyl-propyl}-[1,2,4]oxadiazol-5-yl)-azetidin-3-ol] | 0.015 µM | 0.25 µM
CC(C)C(C)(c1ccc(-c2cnc(N)nc2)cc1)c1noc(NCC2CCOCC2)n1 (stereo not drawn) [Example 201, 5-[4-(1,2-Dimethyl-1-{5-[(tetrahydro-pyran-4-ylmethyl)-amino]-[1,2,4]oxadiazol-3-yl}-propyl)-phenyl]-pyrimidin-2-ylamine] | 0.013 µM | 0.2 µM
CC(C)C(C)(c1ccc(-c2cnc(N)nc2)cc1)c1noc(N2CCN(C)C(=O)C2)n1 (stereo not drawn) [Example 202, 4-(3-{1-[4-(2-Amino-pyrimidin-5-yl)-phenyl]-1,2-dimethyl-propyl}-[1,2,4]oxadiazol-5-yl)-1-methyl-piperazin-2-one] | 0.046 µM | 0.35 µM
